# Peptide text beside a SMILES is read from it.
# System: aquaporin 3
# Test: Expression of aquaporin 3 by immunofluorescence in samples of skin ex vivo
# Assay type: cell-based, human
# Details: 1% solution of a mother solution at 50 ppm applied topically, 24 hours or 48 hours; in particular upper layers of the epidermis; vs non-treated control
# Description: The aim of this study is to determine the influence of the peptide SEQ ID no 5 on the expression of aquaporin 3 in samples of skin ex vivo.
# Protocol: Samples of human skin are cultured at the air/liquid interface. A 1% solution of a mother solution at 50 ppm of peptide SEQ ID no 4 is applied topically, then the samples are incubated for 24 hours or 48 hours.
# These skin samples are then fixed with formaldehyde then enclosed in paraffin. Sections of 2 to 3 μm are then realized. The immunolabeling is carried out after different stages of washing and incubation of these sections. The immunolabeling is carried out by means of a specific polyclonal antibody of aquaporin 3 (anti-aquaporin 3 (C-18): goat polyclonal, sc-9885, Santa Cruz, dilution 1/100th), then a secondary antibody, coupled to a fluorescent marker (alexa-fluor 488 donkey anti-goat Ig G, Molecular Probes, dilution 1/1000th). The skin sections are then examined by epifluorescence microscope (Nikon Eclipse E600 microscope).
compound,measurement,value
"C[C@H](NC(=O)[C@@H]1CCCN1C(=O)[C@@H](N)CC(N)=O)C(=O)N[C@@H](CCCNC(=N)N)C(=O)O [SEQ ID no 4, Asn-Pro-Ala-Arg] (H-NPAR-OH; N-terminus and C-terminus assumed)",aquaporin 3 immunofluorescence,stronger fluorescence

# — patent US20100261658A1, “PEPTIDE FOR ACTIVATING AQUAPORIN SYNTHESIS” (priority 2007, published 2010)
